Test system: HCC cell lines (HepG2, Hep3B, HUH-1, HUH-6, HUH-7, JHH-5, JHH-7)
Experiment: Cell-titer glo proliferation assay, summary for the seven sensitive HCC cell lines
Assay type: cell-based, human
Method: Cell lines: Twenty-one HCC cell lines were purchased from either ATCC (HepG2, Hep3B, PLC/PRF/5, SK-Hepl, SNU-182, SNU-387, SNU-398, SNU-423, SNU-449, SNU-475) or Health Science Research Resources Bank (Japan) (HUH-1, HUH-6, HUH-7, HLE, HLF, JHH-1, JHH-2, JHH-4, JHH-5, JHH-6, JHH-7). All the cell lines were maintained in media as described by the vendors. For growth inhibition assays, cells were plated and allowed to proliferate for 24 hours. After 24 hours, cells had reached approximately 15% confluency, at which time serial dilutions of OSI-906 were added and the cells grown for a further 72 hours. Cell viability was assayed using the Cell Titer-Glo reagent (Promega Corp., Madison, Wis.).
Proliferation Assay. Proliferation was assayed using Cell Titer Glo assays (Promega) and was determined 72 hours following dosing with OSI-906. The basis of the assay is a luminescent quantitation of ATP present in a cell culture plate well. […] The assay utilizes a substrate that binds ATP to produce a luminescent signal, which can be read on a luminometer. […] Results were calculated as a fraction of the DMSO controlled cells.
To test cell sensitivity of HCC cells to the IGF-1R kinase inhibitor OSI-906, twenty-one HCC cell lines were treated with different concentration of OSI-906, and cell proliferation was measured by cell-titer glo assays (FIG. 1). […]

EC50 (Homo sapiens): < 1000 nM
Compound: C[C@]1(O)C[C@@H](c2nc(-c3ccc4ccc(-c5ccccc5)nc4c3)c3c(N)nccn32)C1 [OSI-906, cis-3-[8-amino-1-(2-phenyl-quinolin-7-yl)-imidazo[1,5-a]pyrazin-3-yl]-1-methyl-cyclobutanol]
maximum inhibition: > 40%
